The numbers were not newly measured in the CATMoS acute toxicity set (Mansouri et al. 2021), which cites them from elsewhere.

This series can be described thus: rat acute oral toxicity. As to conditions: in vivo. An excerpt: […]The data set underlying the modeling effort for this project was initially compiled by NICEATM and U.S. EPA’s CCTE. Briefly, LD50 data were collected from rat acute oral systemic toxicity tests, including limit tests, ranges/confidence intervals, and discrete LD50 values. The full data set included 21,200 LD50 entries for 15,688 substances. […] Data were reviewed to ensure that LD50 values with obvious errors in the extracted data such as unit conversion errors (e.g., comma and decimal separator misplacements) were either fixed or removed. After this review, 16,209 LD50 values remained. Many of the chemicals represented had multiple LD50 entries, requiring that a single representative value per Chemical Abstracts Service Registry Number (CASRN) identifier be defined to facilitate modeling efforts. Based on ATWG feedback and to define the representative LD50 as a protective value while accounting for the distribution across multiple LD50s, the median of the lowest quartile was computed using only discrete LD50 values (omitting limit test data and range and confidence interval data). A detailed summary of the data compilation is available online on the NICEATM webpage dedicated to the collaborative modeling project (NTP 2020).
[…][…] For categorical designations, limit test and range/confidence interval LD50 data were integrated wherever possible. As such, the number of chemicals with end point values/calls varies across the modeling end points (Table 3) based on whether chemicals had representative LD50 values and/or other data. If a chemical had both, the representative value was used to determine categorical calls rather than limit test data. Some data were useable only for certain end points and categories depending on the thresholds. For example, ranges that spanned multiple hazard categories were considered only for the binary (very toxic/nontoxic) end points and omitted from rendering a determination for hazard category assignment.
[…]The final data set comprising 11,992 chemicals was split into training and evaluation sets […], respectively. This process was performed semirandomly by ordering chemicals based on the five end points (categorical and continuous LD50 values) and partitioning every fourth record into the evaluation set accordingly. This approach was taken to ensure an equivalent distribution of the LD50 values and the different hazard categories between the training and the evaluation sets without supervised sampling of the chemicals based on structures (Figure 1A). The sources of the chemical structures were also kept equivalent between the two sets, with chemical structures obtained from DSSTox, being the highest quality, representing over 75% of each set (Figure 1B).
As for `COC1C(O)CC(=O)OC(C)CC=CC=CC(OC2CCC(N(C)C)C(C)O2)C(C)CC(CC=O)C1OC1OC(C)C(OC2CC(C)(O)C(O)C(C)O2)C(N(C)C)C1O` (stereo unspecified), the LD50 is 4650 mg/kg.

Regarding `CC1Oc2ccccc2CC1N(C)C` (stereo unspecified), the 50% lethal dose (LD50) is 812 mg/kg.

For `CC(O)CN(C)c1ccc(NN)nn1` (stereo unspecified), the LD50 was 1230 mg/kg. For `Nc1ccc2[nH]c3ccc(N)cc3c2c1`, the LD50 is 1040 mg/kg. As to `COc1cc(C(=O)Oc2c(CCC(C)=O)c(=O)n(-c3ccccc3)n2-c2ccccc2)cc(OC)c1OC`, the median lethal dose (LD50) was 3000 mg/kg. Regarding `Cc1ccc(CCOC(=O)c2cccnc2)cc1`, the 50% lethal dose (LD50) is 3500 mg/kg. As for `O=C(O)CCC(CC(=O)O)(C(=O)O)P(=O)(O)O` (stereo unspecified), the LD50 was 4000 mg/kg. With `CON=C(C(=O)N[C@@H]1C(=O)N2C(C(=O)O)=C(COC(N)=O)CS[C@H]12)c1ccco1`, the 50% lethal dose (LD50) was 10000 mg/kg. `O=NN(c1ccccc1)c1ccccc1`: the LD50 is 1820 mg/kg.

Consider `CCOC(=O)C1(c2ccccc2)CCN(CCOCCO)CC1`, for which the 50% lethal dose (LD50) is 230 mg/kg.

In the case of `Nc1cc(S(=O)(=O)O)c2cccc(S(=O)(=O)O)c2c1`, the LD50 was 11400 mg/kg. `CN(C)c1nc2cc(Cl)ccc2o1`: the LD50 was 800 mg/kg. As to `COC(=O)Nc1cccc(OC(=O)Nc2cccc(C)c2)c1`, the LD50 was 4000 mg/kg. `COc1ccc2c(c1)c(CC(=O)Oc1ccccc1C(=O)O)c(C)n2C(=O)c1ccc(Cl)cc1`: the 50% lethal dose (LD50) was 59.5 mg/kg. Turning to `COc1ccc2ccc(=O)oc2c1CC=C(C)C`, the LD50 is 2900 mg/kg.

Consider `CCCCCCCCCCCCOCCO`, for which the 50% lethal dose (LD50) is 6550 mg/kg. Regarding `N#CC(OC1OC(COC2OC(CO)C(O)C(O)C2O)C(O)C(O)C1O)c1ccccc1` (stereo unspecified), the LD50 is 517 mg/kg. With `C#CC(C)(C)NC(=O)C=Cc1cc(OC)c(OC)c(OC)c1`, the LD50 was 570 mg/kg. As for `S=C1NCCC(COc2ccccc2)O1` (stereo unspecified), the 50% lethal dose (LD50) is 2200 mg/kg. On to `CC(=O)C=Cc1ccccc1`, for which the LD50 is 2030 mg/kg.

Turning to `Cn1c(=O)c2c(ncn2CCO)n(C)c1=O`, the 50% lethal dose (LD50) was 710 mg/kg. With `CC(C)N(C(=O)SCC(Cl)=CCl)C(C)C`, the 50% lethal dose (LD50) was 395 mg/kg. `CNC(=O)Oc1ccc(Cl)c2c1OC(C)(C)C2`: the 50% lethal dose (LD50) is 248 mg/kg.

As for `C=C1C(=CC=C2CCCC3(C)C2CCC3C(C)CCCC(C)C)CC(O)CC1O` (stereo unspecified), the LD50 was 340 mg/kg. Take `O=Cc1cccc(Oc2ccccc2)c1`: the 50% lethal dose (LD50) is 1220 mg/kg. For `CN(C)C(=O)Nc1ccc(Cl)cc1`, the LD50 is 1050 mg/kg. As for `N#CC(Cl)CS(=O)(=O)c1ccccc1` (stereo unspecified), the 50% lethal dose (LD50) was 540 mg/kg. Turning to `FC(F)(F)c1nc2ccc(Br)cc2[nH]1`, the median lethal dose (LD50) is 49 mg/kg. Consider `O=S1(=O)OCC2C(CO1)C1(Cl)C(Cl)=C(Cl)C2(Cl)C1(Cl)Cl` (stereo unspecified), for which the LD50 is 18 mg/kg. For the molecule `CCCCCCCCc1ccc(C(C[n+]2ccccc2)OCCCC)cc1` (stereo unspecified), the LD50 is 250 mg/kg. In the case of `O=C(O)c1ccccc1Nc1cccc(Cl)c1CO`, the LD50 was 2400 mg/kg. Take `CCN(CC)c1ccc(N)c(C)c1`: the LD50 was 200 mg/kg. In the case of `COP(=S)(OC)C(C(=O)O)c1ccccc1` (stereo unspecified), the LD50 is 4500 mg/kg. As for `CC1(C)CCCO1`, the LD50 was 4000 mg/kg. Consider `O=C1C(Cl)=C(Cl)C(=O)C1=C(Cl)Cl`, for which the LD50 was 2300 mg/kg.

On to `CCCCC(CC)COC(C[n+]1ccccc1)c1ccc(Cl)c(Cl)c1` (stereo unspecified), for which the 50% lethal dose (LD50) is 250 mg/kg.

In the case of `NNCCc1ccccc1`, the LD50 was 210 mg/kg. On to `FC(F)OC(Cl)C(F)(F)F` (stereo unspecified), for which the 50% lethal dose (LD50) is 4770 mg/kg. With `C=CC(=O)OCC(CO)(COC(=O)C=C)COC(=O)C=C`, the 50% lethal dose (LD50) was 1830 mg/kg. Consider `CC(C)=NNC(=O)CSc1cc(Oc2ccccc2)ncn1`, for which the median lethal dose (LD50) was 1080 mg/kg.

In the case of `CC(C)C(Br)C(=O)O` (stereo unspecified), the 50% lethal dose (LD50) was 769 mg/kg. Consider `Cc1ccc(C(N)=O)cc1N`, for which the LD50 is 1730 mg/kg.

Take `O=C(OCCCl)c1ccccc1C(=O)OCCCl`: the LD50 is 730 mg/kg. Turning to `CCCS(=O)(=O)/C=C/S(=O)(=O)CCC`, the median lethal dose (LD50) is 200 mg/kg.

On to `OCCN1CCCCC1`, for which the 50% lethal dose (LD50) is 1500 mg/kg. As for `CCOc1cc(Cc2cnc(N)nc2N)cc(OCC)c1-n1cccc1`, the median lethal dose (LD50) was 1420 mg/kg. On to `CN(C)[C@@H]1C(O)=C(C(N)=O)C(=O)[C@@]2(O)C(O)=C3C(=O)c4c(O)cccc4[C@@](C)(O)[C@H]3[C@H](O)[C@@H]12`, for which the LD50 is 4800 mg/kg. Regarding `Cc1cc(Cl)ccc1O`, the LD50 is 1190 mg/kg. Consider `CNC(=O)O/N=C/C(C)(C)S(C)=O` (stereo unspecified), for which the LD50 is 0.49 mg/kg.

As for `O=C1CCC(=O)N1`, the LD50 was 14000 mg/kg. With `CCOc1ccc([N+](=O)[O-])cc1CNCCO`, the LD50 was 25 mg/kg.

For orientation: LD50 means the dose at which mortality reaches 50%.
